Measured values published in patent US20010016571A1, “N-[ (R) -1-{3- (4- piperidyl) propionyl } -3-piperidylcarbonyl] -2 (S) -acetylamino-beta -alanine as fibrinogen receptor antagonist” (FUJISAWA PHARMACEUTICAL CO., LTD., priority 1996, published 2001).
pIC50: −log10 of the molar value.

Target: T1, fibrinogen binding to platelets (glycoprotein IIb/IIIa) (Homo sapiens, UniProt P05106+P08514)
T1 construct: Washed human platelets were prepared from platelet-rich plasma by gel filtration; from tissue
Test: Test 1: Fibrinogen Binding to Platelets (FITC-fibrinogen, flow cytometry)
Conditions: washed human platelets activated with 20 μM ADP, fixed; 10 μg/ml FITC-fibrinogen; 30 minutes at room temperature; read-out: IC50 (dose required to inhibit the binding by 50%)
Method: Test 1: Fibrinogen Binding to Platelets
Washed human platelets were prepared from platelet-rich plasma by gel filtration. The washed platelets were activated with 20 μM ADP for 10 minutes and then fixed for 30 minutes with 0.8% paraformaldehyde. The platelets were then washed by centrifugation and suspended in HEPES-Tyrodes buffer containing […].
350 μl of platelets were incubated at a final concentration of 2×10^8/ml with 10 μg/ml FITC-fibrinogen and test compound. The reaction was left for 30 minutes at room temperature. The FITC fluoresence of bound fibrinogen was measured by using a FACS can flow cytometer.
Specific binding was calculated by subtracting the binding in the presence of 50-fold excess unlabeled fibrinogen. Result was expressed at IC50 value, i.e. dose required to inhibit the binding by 50%.

T1 sequence (P08514 32-887 limits assumed): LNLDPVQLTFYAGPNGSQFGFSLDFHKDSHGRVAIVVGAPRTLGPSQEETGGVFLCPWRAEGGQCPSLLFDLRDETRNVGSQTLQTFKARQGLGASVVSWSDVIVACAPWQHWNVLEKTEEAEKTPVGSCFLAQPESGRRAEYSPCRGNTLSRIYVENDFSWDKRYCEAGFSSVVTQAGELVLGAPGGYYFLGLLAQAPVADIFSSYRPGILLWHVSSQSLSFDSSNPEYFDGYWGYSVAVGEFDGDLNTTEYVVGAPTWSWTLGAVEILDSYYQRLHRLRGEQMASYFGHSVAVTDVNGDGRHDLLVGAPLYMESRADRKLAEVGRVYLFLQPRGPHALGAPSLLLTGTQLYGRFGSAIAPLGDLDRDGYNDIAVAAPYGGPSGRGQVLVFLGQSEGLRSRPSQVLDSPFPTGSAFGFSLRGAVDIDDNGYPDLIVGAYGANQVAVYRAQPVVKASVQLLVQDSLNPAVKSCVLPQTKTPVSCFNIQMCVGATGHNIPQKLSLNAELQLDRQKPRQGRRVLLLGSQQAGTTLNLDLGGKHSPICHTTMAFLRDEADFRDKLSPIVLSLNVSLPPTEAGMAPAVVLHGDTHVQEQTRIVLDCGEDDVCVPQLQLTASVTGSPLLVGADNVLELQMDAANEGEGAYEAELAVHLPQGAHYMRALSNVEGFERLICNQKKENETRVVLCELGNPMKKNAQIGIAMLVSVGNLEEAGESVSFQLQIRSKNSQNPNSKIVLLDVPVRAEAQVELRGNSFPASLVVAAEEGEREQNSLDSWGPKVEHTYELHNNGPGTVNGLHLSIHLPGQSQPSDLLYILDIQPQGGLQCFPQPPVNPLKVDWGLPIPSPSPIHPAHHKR
T1 sequence (P08514 891-1039 limits assumed): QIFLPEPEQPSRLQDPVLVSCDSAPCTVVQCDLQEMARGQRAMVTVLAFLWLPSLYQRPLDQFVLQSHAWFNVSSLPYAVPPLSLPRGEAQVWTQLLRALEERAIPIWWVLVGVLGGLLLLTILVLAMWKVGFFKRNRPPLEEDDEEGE
T1 sequence (P05106 27-788): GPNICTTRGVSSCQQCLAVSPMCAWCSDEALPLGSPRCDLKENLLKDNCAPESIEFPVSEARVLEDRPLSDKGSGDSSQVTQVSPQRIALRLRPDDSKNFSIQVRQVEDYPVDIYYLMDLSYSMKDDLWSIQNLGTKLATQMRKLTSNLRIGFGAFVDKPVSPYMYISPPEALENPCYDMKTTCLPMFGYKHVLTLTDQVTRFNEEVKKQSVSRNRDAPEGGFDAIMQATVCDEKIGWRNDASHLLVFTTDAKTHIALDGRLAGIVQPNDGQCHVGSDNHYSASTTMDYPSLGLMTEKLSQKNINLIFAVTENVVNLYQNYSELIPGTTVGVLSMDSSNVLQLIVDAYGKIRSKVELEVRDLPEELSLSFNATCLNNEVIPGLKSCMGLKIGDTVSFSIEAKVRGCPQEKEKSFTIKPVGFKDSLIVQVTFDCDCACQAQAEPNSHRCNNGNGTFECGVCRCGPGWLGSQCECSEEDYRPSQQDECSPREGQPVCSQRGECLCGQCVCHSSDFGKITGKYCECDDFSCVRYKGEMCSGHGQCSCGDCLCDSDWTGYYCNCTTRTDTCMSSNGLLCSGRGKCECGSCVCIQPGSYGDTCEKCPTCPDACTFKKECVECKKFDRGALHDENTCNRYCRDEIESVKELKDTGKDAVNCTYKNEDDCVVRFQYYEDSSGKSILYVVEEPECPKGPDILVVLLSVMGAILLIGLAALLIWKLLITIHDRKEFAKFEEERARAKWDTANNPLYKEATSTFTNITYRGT

pIC50: 7.80
Structure (SMILES): CC(=O)NC(CNC(=O)[C@@H]1CCCN(C(=O)CCC2CCNCC2)C1)C(=O)O (stereo partly shown) [Example 1]
